Source: US20190029252A1, “Use of Herbicide-tolerant Protein” (BEIJING DABEINONG TECHNOLOGY GROUP CO., LTD., priority 2016, published 2019)

Experiments:
Assay type in all cases: in vivo
[1] = test system: Gm chloroplastic ALT-2-01 soybean plants; test: Glyphosate tolerance of soybean plants, herbicide damage rate; conditions: 840 g ae/ha (1-fold field concentration), 14 DAT
From the text: (§1) The herbicide tolerance effects of Gm cytoplasmic ALT-1-01 soybean plants, Gm chloroplastic ALT-1-01 soybean plants, Gm cytoplasmic ALT-2-01 soybean plants, Gm chloroplastic ALT-2-01 soybean plants, Gm cytoplasmic ALT-3-01 soybean plants, Gm chloroplastic ALT-3-01 soybean plants and wild-type soybean plants on glyphosate were detected (at seedling stage), respectively.
(§2) 2 strains from Gm cytoplasmic ALT-1-01 soybean plants, Gm chloroplastic ALT-1-01 soybean plants, Gm cytoplasmic ALT-2-01 soybean plants, Gm chloroplastic ALT-2-01 soybean plants, Gm cytoplasmic ALT-3-01 soybean plants, Gm chloroplastic ALT-3-01 soybean plants and wild-type soybean plants were respectively taken each, and 10-15 plants were selected from each strain and tested. The plants above were sprayed with glyphosate (840 g ae/ha, 1-fold field concentration) and a blank solvent (water). The herbicide damage rate was measured for each plant according to the phytotoxicity symptoms 14 days after spraying (14 DAT): herbicide damage rate (%)=Σ(number of damaged plants at the same level× level number)/(total number of plants×highest level).

[2] = test system: wild-type soybean plants (CK1); test: as above; conditions: 840 g ae/ha (1-fold field concentration), 14 DAT
From the text: as §1, §2

[3] = test system: Gm cytoplasmic ALT-3-01 soybean plants; test: as above; conditions: 840 g ae/ha (1-fold field concentration), 14 DAT
From the text: as §1, §2

[4] = test system: Gm cytoplasmic ALT-2-01 soybean plants; test: as above; conditions: 840 g ae/ha (1-fold field concentration), 14 DAT
From the text: as §1, §2

[5] = test system: Gm chloroplastic ALT-3-01 soybean plants; test: as above; conditions: 840 g ae/ha (1-fold field concentration), 14 DAT
From the text: as §1, §2

[6] = test system: Gm cytoplasmic ALT-1-01 soybean plants; test: as above; conditions: 840 g ae/ha (1-fold field concentration), 14 DAT
From the text: as §1, §2

[7] = test system: Gm chloroplastic ALT-1-01 soybean plants; test: as above; conditions: 840 g ae/ha (1-fold field concentration), 14 DAT
From the text: as §1, §2

[8] = test system: wild-type Arabidopsis thaliana plants; test: Herbicide tolerance of Arabidopsis thaliana plants, sprayed, resistance classes counted 14 days after spraying; conditions: wild-type; sprayed at 1-fold field concentration; 14 days after spraying
From the text: (§3) T1 transformants were initially selected from the background of untransformed seeds using a glufosinate selection scheme. About 40000 T1 seeds were screened, and 380 T1 positive transformants (PAT gene) were identified with a transformation efficiency of about 0.95%. The plants that were transformed with the recombinant expression vector DBN100632 were Arabidopsis thaliana plants having an ALT-1-01 nucleotide sequence located in the cytoplasm introduced (At cytoplasmic ALT-1-01), and the plants that were transformed with the recombinant expression vector DBN100631 were Arabidopsis thaliana plants having an ALT-1-01 nucleotide sequence located in the chloroplast introduced (At chloroplastic ALT-1-01); the plants that were transformed with the recombinant expression vector DBN100634 were Arabidopsis thaliana plants having an ALT-2-01 nucleotide sequence located in the cytoplasm introduced (At cytoplasmic ALT-2-01), and the plants that were transformed with the recombinant expression vector DBN100633 were Arabidopsis thaliana plants having an ALT-2-01 nucleotide sequence located in the chloroplast introduced (At chloroplastic ALT-2-01); and the plants that were transformed with the recombinant expression vector DBN100636 were Arabidopsis thaliana plants having an ALT-3-01 nucleotide sequence located in the cytoplasm introduced (At cytoplasmic ALT-3-01), and the plants that were transformed with the recombinant expression vector DBN100635 were Arabidopsis thaliana plants having an ALT-3-01 nucleotide sequence located in the chloroplast introduced (At chloroplastic ALT-3-01).
(§4) Plants were counted for the resistance situations 14 days after spraying: those having a consistent growth status with the blank solvent (water) group after 14 days were classified as highly resistant plants, those having a bolting height less than ½ of that of the blank solvent (water) group after 14 days were classified as moderately resistant plants, those still not capable of bolting after 14 days were classified as poorly resistant plants, and those dead after 14 days were classified as non-resistant plants. Since each Arabidopsis thaliana T1 plant was an independent transformation event, a significant difference in individual T1 responses could be expected at a given dose.
as §4, with “situation” for “situations”

[9] = test system: transformed Arabidopsis thaliana T1 plants (ALT-1, ALT-2 and ALT-3); test: Herbicide tolerance of transgenic Arabidopsis thaliana T1 plants, overall conclusion; conditions: all transformed Arabidopsis thaliana T1 plants; 1-fold field concentration
From the text: as §4
as §4, with “situation” for “situations”

[10] = test system: At cytoplasmic ALT-1-01 T1 plants; test: Herbicide tolerance of Arabidopsis thaliana T1 plants, sprayed, resistance classes counted 14 days after spraying; conditions: sprayed at 1-fold field concentration
From the text: as §3, §4
as §4, with “situation” for “situations”

[11] = test system: At cytoplasmic ALT-3-01 T1 plants; test: as above; conditions: sprayed at 1-fold field concentration
From the text: as §3, §4
as §4, with “situation” for “situations”

[12] = test system: At chloroplastic ALT-1-01 T1 plants; test: as above; conditions: sprayed at 1-fold field concentration
From the text: as §3, §4
as §4, with “situation” for “situations”

[13] = test system: At chloroplastic ALT-2-01 T1 plants; test: as above; conditions: sprayed at 1-fold field concentration
From the text: as §3, §4
as §4, with “situation” for “situations”

[14] = test system: At chloroplastic ALT-3-01 T1 plants; test: as above; conditions: sprayed at 1-fold field concentration
From the text: as §3, §4
as §4, with “situation” for “situations”

[15] = test system: At cytoplasmic ALT-2-01 T1 plants; test: as above; conditions: sprayed at 1-fold field concentration
From the text: as §3, §4
as §4, with “situation” for “situations”

O=C(O)CNCP(=O)(O)O [glyphosate, N-phosphonomethylglycine]
not less than 90%: glyphosate herbicide damage rate [2]
~0%: glyphosate herbicide damage rate [1] | glyphosate herbicide damage rate [3] | glyphosate herbicide damage rate [4] | glyphosate herbicide damage rate [5] | glyphosate herbicide damage rate [6] | glyphosate herbicide damage rate [7]

COC(=O)c1ccc(I)cc1S(=O)(=O)NC(=O)Nc1nc(C)nc(OC)n1 [iodosulfuron-methyl]
did not exhibit the ability to degrade: ability of the transformed plants to degrade the herbicide (in words) [9]
0: Highly resistant (number of plants) [8] | Moderately resistant (number of plants) [8] | Poorly resistant (number of plants) [8] | Highly resistant (number of plants) [10] | Moderately resistant (number of plants) [10] | Poorly resistant (number of plants) [10] | Highly resistant (number of plants) [11] | Moderately resistant (number of plants) [11] | Poorly resistant (number of plants) [11] | Highly resistant (number of plants) [12] | Moderately resistant (number of plants) [12] | Poorly resistant (number of plants) [12] | Highly resistant (number of plants) [13] | Moderately resistant (number of plants) [13] | Poorly resistant (number of plants) [13] | Highly resistant (number of plants) [14] | Moderately resistant (number of plants) [14] | Poorly resistant (number of plants) [14] | Highly resistant (number of plants) [15] | Moderately resistant (number of plants) [15] | Poorly resistant (number of plants) [15]
31: Non-resistant (number of plants) [13]
30: Non-resistant (number of plants) [11] | Non-resistant (number of plants) [12] | Non-resistant (number of plants) [15]
29: Non-resistant (number of plants) [8] | Non-resistant (number of plants) [10]
32: Non-resistant (number of plants) [14]

COC(=O)c1ccc(CNS(C)(=O)=O)cc1S(=O)(=O)NC(=O)Nc1nc(OC)cc(OC)n1 [mesosulfuron]
did not exhibit the ability to degrade: ability of the transformed plants to degrade the herbicide (in words) [9]
29: Non-resistant (number of plants) [10]
0: Highly resistant (number of plants) [8] | Moderately resistant (number of plants) [8] | Poorly resistant (number of plants) [8] | Highly resistant (number of plants) [10] | Moderately resistant (number of plants) [10] | Poorly resistant (number of plants) [10] | Highly resistant (number of plants) [11] | Moderately resistant (number of plants) [11] | Poorly resistant (number of plants) [11] | Highly resistant (number of plants) [12] | Moderately resistant (number of plants) [12] | Poorly resistant (number of plants) [12] | Highly resistant (number of plants) [13] | Moderately resistant (number of plants) [13] | Poorly resistant (number of plants) [13] | Highly resistant (number of plants) [14] | Moderately resistant (number of plants) [14] | Poorly resistant (number of plants) [14] | Highly resistant (number of plants) [15] | Moderately resistant (number of plants) [15] | Poorly resistant (number of plants) [15]
30: Non-resistant (number of plants) [11] | Non-resistant (number of plants) [13]
28: Non-resistant (number of plants) [8]
32: Non-resistant (number of plants) [12] | Non-resistant (number of plants) [14] | Non-resistant (number of plants) [15]

Cc1cc(C)nc(NC(=O)NS(=O)(=O)c2ccccc2C(=O)OC2COC2)n1 [oxasulfuron]
31: Non-resistant (number of plants) [14]
30: Non-resistant (number of plants) [11] | Non-resistant (number of plants) [12] | Non-resistant (number of plants) [13] | Non-resistant (number of plants) [15]
28: Non-resistant (number of plants) [8] | Non-resistant (number of plants) [10]
0: Highly resistant (number of plants) [8] | Moderately resistant (number of plants) [8] | Poorly resistant (number of plants) [8] | Highly resistant (number of plants) [10] | Moderately resistant (number of plants) [10] | Poorly resistant (number of plants) [10] | Highly resistant (number of plants) [11] | Moderately resistant (number of plants) [11] | Poorly resistant (number of plants) [11] | Highly resistant (number of plants) [12] | Moderately resistant (number of plants) [12] | Poorly resistant (number of plants) [12] | Highly resistant (number of plants) [13] | Moderately resistant (number of plants) [13] | Poorly resistant (number of plants) [13] | Highly resistant (number of plants) [14] | Moderately resistant (number of plants) [14] | Poorly resistant (number of plants) [14] | Highly resistant (number of plants) [15] | Moderately resistant (number of plants) [15] | Poorly resistant (number of plants) [15]
did not exhibit the ability to degrade: ability of the transformed plants to degrade the herbicide (in words) [9]
